Assay results as given in publication PMC7179297, “Preclinical Antimalarial Combination Study of M5717, a Plasmodium falciparum Elongation Factor 2 Inhibitor, and Pyronaridine, a Hemozoin Formation Inhibitor” (Antimicrobial Agents and Chemotherapy, 2020).
Several values for one entry are separate records, joined by “and”; a condition that tells them apart may be missing. Identical values can stand only once. Like-named read-outs stand apart in the source and are kept apart here. Marks after values point to notes of the source that are not given here.

How the values were obtained:
[1] = test system: P. falciparum Pf3D70087/N9; assay: Murine P. falciparum SCID model, efficacy and recrudescence; format: in vivo, Plasmodium falciparum; conditions: for Parasitemia Day 3: day 3 = day of treatment
Protocol: Compound efficacy was assessed in the murine P. falciparum SCID model essentially as described by Jimenez-Díaz et al. ([20]). Briefly, alone or in combination, M5717 (succinate salt by Merck KGaA [MSC2576186-B4]) and pyronaridine (tetraphosphate salt, Sigma-Aldrich [P0049]) were formulated in 7% Tween80, 3% ethanol and administered to a cohort of age-matched female immunodeficient NOD-scid IL-2Rγ^null mice (Jackson Laboratory, Bar Harbor, ME). These mice had been previously engrafted with human erythrocytes (generously provided by the blood bank in Zürich, Switzerland). Prior to compound treatment, mice were intravenously infected with 2 × 10^7 P. falciparum Pf3D7^0087/N9 -infected erythrocytes (day 0) ([30]). On day 3 after infection, mice, in groups of 2 to 5, were randomly allocated to treatments that were administered with a single oral gavage at 10 ml/kg (Table 2 and Fig. 2). Parasitemia was measured by microscopy. Chimerism was monitored by flow cytometry using an anti-murine erythrocyte TER119 monoclonal antibody (Pharmingen, San Diego, CA) and SYTO-16 and then analyzed by flow cytometry in serial blood samples (2 μl) collected every 2 to 3 days until the completion of the experiment (Table 2, day 60 and Fig. 2, day 80). Parasite recrudescence was detected by microscopy. Once parasitemia exceeded 0.5%, then 100 to 500 μl of blood was collected and stored at –80°C for subsequent sequence analysis. Animals received a second treatment with the same dose and if applicable the same combination of compounds as previously administered in that dose group (Fig. 2). Efficacy was again monitored by microscopy. If recrudescence occurred again then new blood samples were stored at –80°C.
Time-to-recrudescence data were analyzed using the Kaplan-Meier method. Log-rank test was performed for two-group comparisons. Kaplan-Meier curves and log-rank test P values, as well as median estimates for time to recrudescence, are presented (SAS, Version 9.4. Cary, NC: SAS Institute Inc.; 2014).

[2] = test system: P. falciparum eEF2 mutant parasites; parameters: method as in PMID 26085270; conditions: cited from earlier work
[3] = 400 mg in healthy volunteers ref 16; cited from earlier work
[4] = M5717 3 mg/kg single oral dose (entry 1)
[5] = M5717 6 mg/kg single oral dose (entry 2)
[6] = M5717 12 mg/kg single oral dose (entry 3)
[7] = M5717 30 mg/kg single oral dose (entry 4)
[8] = pyronaridine 6 mg/kg single oral dose (entry 5)
[9] = pyronaridine 12 mg/kg single oral dose (entry 6)
[10] = pyronaridine 12 mg/kg single oral dose (entry 6), LLQ <0.01%
[11] = pyronaridine 36 mg/kg single oral dose (entry 7)
[12] = pyronaridine 36 mg/kg single oral dose (entry 7), LLQ <0.01%

Which results are given for `O=C(NCCN1CCCC1)c1cc(-c2ccc(CN3CCOCC3)cc2)nc2ccc(F)cc12` [M5717]?
Parasitemia Day 4 [1, 4]: 0.65%; Parasitemia Day 5 [1, 4]: 0.49%; Parasitemia Day 6 [1, 4]: 0.19%; Mean DoR (day of recrudescence) ([1]; M5717 3 mg/kg single oral dose (entry 1), uncorrected): 6 days postinfection; Parasitemia Day 3 [1, 4]: 1.2%; Parasitemia Day 4 [1, 5]: 1.4%; Parasitemia Day 5 [1, 5]: 1.03%; Parasitemia Day 6 [1, 5]: 0.46%; Mean DoR (day of recrudescence) ([1]; M5717 6 mg/kg single oral dose (entry 2), uncorrected): 17 days postinfection; Parasitemia Day 3 [1, 5]: 1.26%; mice in which resistance evolved ([1]; M5717 12 mg/kg arm): 5/5; Parasitemia Day 4 [1, 6]: 0.58%; Parasitemia Day 5 [1, 6]: 0.53%; Parasitemia Day 6 [1, 6]: 0.11%; Mean DoR (day of recrudescence) ([1]; M5717 12 mg/kg single oral dose (entry 3), uncorrected): 24 days postinfection; Parasitemia Day 3 [1, 6]: 0.81%; median time to recrudescence ([1]; M5717 12 mg/kg single oral dose, all mice n = 5, Kaplan-Meier, 12 mg/kg): 19 days; day postinfection at which LLQ was reached ([1]; M5717 12 mg/kg single oral dose, n = 5 (Fig. 2A)): 8 days; median time to recrudescence ([1]; M5717 12 mg/kg, mice showing no response to retreatment (M1, M2, M3, n = 3)): 18 days; response to retreatment with the same dosing regimen ([1]; M5717 12 mg/kg, mice with early recrudescence (D17, D18, D19)): not susceptible; response to retreatment with the same dosing regimen ([1]; M5717 12 mg/kg, mice with later recrudescence (D23, D24)): responded partially; median time to recrudescence ([1]; M5717 12 mg/kg, mice with later recrudescence (M4 and M5, n = 2)): 23.5 days; Parasitemia Day 4 [1, 7]: 0.73%; Parasitemia Day 5 [1, 7]: 0.54%; Parasitemia Day 6 [1, 7]: 0.21%; Mean DoR (day of recrudescence) ([1]; M5717 30 mg/kg single oral dose (entry 4), uncorrected): 24 days postinfection; Parasitemia Day 3 [1, 7]: 0.89%; Parasitemia for the individual mice at blood draw ([1]; M5717 1x30 mg/kg single oral dose, recrudescent samples 1.1 and 1.2): 3.25% and 0.50%; Recrudescence day post infection ([1]; M5717 1x30 mg/kg single oral dose, samples 1.1 and 1.2): 24; breakpoint between both phases of biphasic clearance of parasitemia ([1]; M5717 alone at 3, 6, 12 and 30 mg/kg): around 48 h; IC50 fold shift ([2]; eEF2 mutation L755F ref 7): 660 fold; IC50 fold shift ([2]; eEF2 mutation P754A ref 7): 135 fold; IC50 fold shift ([2]; eEF2 mutation P754S ref 7): 200 fold; fold shift of IC50 ([2]; eEF2 mutation Y186N, high-grade resistance ref 7): > 3,000 fold

Which “Parasitemia Day 4” value [1, 8] does the source give for `COc1ccc2nc3cc(Cl)ccc3c(Nc3cc(CN4CCCC4)c(O)c(CN4CCCC4)c3)c2n1` [pyronaridine] here?
The value was 0.09%.

What about the “Parasitemia Day 5” value [1, 8] of the same molecule?
Its value is 0.01%.

And the “Parasitemia Day 6” value ([1]; pyronaridine 6 mg/kg single oral dose (entry 5), LLQ <0.01%)?
Its value is 0.00^d %.

And the “Parasitemia Day 3” value [1, 8]?
The value was 0.89%.

And the “Parasitemia Day 4” value [1, 9]?
Its value is 0.13%.

And the “Mean DoR (day of recrudescence)” value ([1]; pyronaridine 12 mg/kg single oral dose (entry 6), uncorrected)?
Its value is 35 days postinfection.

What about the “Parasitemia Day 5” value [1, 10] of the same molecule?
Its value is 0.00^d %.

And the “Parasitemia Day 6” value [1, 10]?
Its value is 0.00^d %.

What about the “Parasitemia Day 3” value [1, 9] of the same molecule?
Its value is 1.51%.

What about the “Parasitemia Day 4” value [1, 11] of the same molecule?
The value was 0.12%.

What about the “Parasitemia Day 5” value [1, 12] of the same molecule?
The value was 0.00^d %.

And the “Parasitemia Day 6” value [1, 12]?
The value was 0.00^d %.

And the “Parasitemia Day 3” value [1, 11]?
Its value is 1.61%.

And the “Mean DoR (day of recrudescence)” value ([1]; pyronaridine 36 mg/kg single oral dose (entry 7), experiment ended at day 60 with parasitemia <0.01%)?
Its value is ≥60^e days postinfection.

And the t1/2 [3]?
Its t1/2 is 10 days.
